In patent publication US20200270309A1, “MALEIMIDE GROUP-MODIFIED ANGIOGENESIS INHIBITOR HM-1 AND USE THEREOF” (NANJING ANJI BIOLOGICAL TECHNOLOGY CO., LTD, priority 2017, published 2020):
Where two headings read alike, the source gives them in different places. Peptide text beside a SMILES is read from it. * marks the point of attachment. X41 = O=C1C=CC(=O)N1c1ccc(CCCCCCCCCCCCC(=O)*)cc1; X36 = O=C1C=CC(=O)N1c1ccc(CCCCCCCCCCCC(=O)*)cc1; X39 = O=C1C=CC(=O)N1c1ccc(CCCCCCCCCCC(=O)*)cc1; X73 = O=C1C=CC(=O)N1c1ccc(CCCCCCCCCC(=O)*)cc1; X40 = O=C1C=CC(=O)N1c1ccc(CCCCCCCCC(=O)*)cc1; X44 = O=C1C=CC(=O)N1c1ccc(CCCCCCCC(=O)*)cc1; X43 = O=C1C=CC(=O)N1c1ccc(CCCCCCC(=O)*)cc1; X37 = O=C1C=CC(=O)N1c1ccc(CCCCCC(=O)*)cc1; X69 = O=C1C=CC(=O)N1c1ccc(CCCCC(=O)*)cc1; X78 = O=C1C=CC(=O)N1c1ccc(CCCC(=O)*)cc1; X47 = O=C1C=CC(=O)N1c1ccccc1CCCCC(=O)*; X56 = O=C1C=CC(=O)N1c1ccc(CCC(=O)*)cc1; X50 = O=C1C=CC(=O)N1c1ccc(CC(=O)*)cc1; X81 = O=C1C=CC(=O)N1c1ccccc1CCCC(=O)*; X13 = O=C1C=CC(=O)N1CCOCCCCCC(=O)*; X12 = O=C1C=CC(=O)N1CCOCCCCC(=O)*; X1 = O=C1C=CC(=O)N1CCOCCCC(=O)*; X42 = O=C1C=CC(=O)N1CCOCCC(=O)*; X38 = O=C1C=CC(=O)N1CCOCC(=O)*

Test: Half-lives and pharmacokinetic parameters of polypeptides vs HM-1
Details: in vivo
[1] = read-out: T1/2β (half-life) (converted)

SMILES | AUC(0-inf) [ng·h/mL] | MRT inf [h] | clearance [mL/min/kg] | half-life (T1/2β (half-life)) [h] | AUC(0-inf) (read-out: AUC0-∞) [ng·h/mL] | clearance (read-out: CL (converted)) [mL/min/kg] | MRT inf (read-out: MRT0-∞) [h] | half-life [1] [h]
C[C@H](NC(=O)CNC(=O)[C@H](CCCNC(=N)N)NC(=O)CCCc1ccccc1N1C(=O)C=CC1=O)C(=O)N[C@@H](CC(=O)O)C(=O)N[C@@H](CCCNC(=N)N)C(=O)N[C@@H](C)C(=O)NCC(=O)NCC(=O)NCC(=O)NCC(=O)N[C@@H](CCCNC(=N)N)C(=O)NCC(=O)N[C@@H](CC(=O)O)C(=O)O [X15] (X81-RGADRAGGGGRGD-OH) | 34400 ± 8520 | 61.5 ± 10 | 0.485 | 42.65 ± 0.25 | – | – | – | –
C[C@H](NC(=O)CNC(=O)[C@H](CCCNC(=N)N)NC(=O)CCCCc1ccccc1N1C(=O)C=CC1=O)C(=O)N[C@@H](CC(=O)O)C(=O)N[C@@H](CCCNC(=N)N)C(=O)N[C@@H](C)C(=O)NCC(=O)NCC(=O)NCC(=O)NCC(=O)N[C@@H](CCCNC(=N)N)C(=O)NCC(=O)N[C@@H](CC(=O)O)C(=O)O [X16] (X47-RGADRAGGGGRGD-OH) | 31400 ± 8390 | 56.3 ± 13.6 | 0.53 | 39 ± 0.24 | – | – | – | –
C[C@H](NC(=O)CNC(=O)[C@H](CCCNC(=N)N)NC(=O)Cc1ccc(N2C(=O)C=CC2=O)cc1)C(=O)N[C@@H](CC(=O)O)C(=O)N[C@@H](CCCNC(=N)N)C(=O)N[C@@H](C)C(=O)NCC(=O)NCC(=O)NCC(=O)NCC(=O)N[C@@H](CCCNC(=N)N)C(=O)NCC(=O)N[C@@H](CC(=O)O)C(=O)O [X37] (X50-RGADRAGGGGRGD-OH) | 27200 ± 7210 | 48.7 ± 13.6 | 0.612 | 33.76 ± 0.28 | – | – | – | –
C[C@H](NC(=O)CNC(=O)[C@H](CCCNC(=N)N)NC(=O)CCc1ccc(N2C(=O)C=CC2=O)cc1)C(=O)N[C@@H](CC(=O)O)C(=O)N[C@@H](CCCNC(=N)N)C(=O)N[C@@H](C)C(=O)NCC(=O)NCC(=O)NCC(=O)NCC(=O)N[C@@H](CCCNC(=N)N)C(=O)NCC(=O)N[C@@H](CC(=O)O)C(=O)O [X38] (X56-RGADRAGGGGRGD-OH) | 31400 ± 7550 | 56.2 ± 11.2 | 0.532 | 38.94 ± 0.25 | – | – | – | –
C[C@H](NC(=O)CNC(=O)[C@H](CCCNC(=N)N)NC(=O)CCCc1ccc(N2C(=O)C=CC2=O)cc1)C(=O)N[C@@H](CC(=O)O)C(=O)N[C@@H](CCCNC(=N)N)C(=O)N[C@@H](C)C(=O)NCC(=O)NCC(=O)NCC(=O)NCC(=O)N[C@@H](CCCNC(=N)N)C(=O)NCC(=O)N[C@@H](CC(=O)O)C(=O)O [X39] (X78-RGADRAGGGGRGD-OH) | 32800 ± 7110 | 58.8 ± 13.1 | 0.508 | 40.73 ± 0.28 | – | – | – | –
C[C@H](NC(=O)CNC(=O)[C@H](CCCNC(=N)N)NC(=O)CCCCc1ccc(N2C(=O)C=CC2=O)cc1)C(=O)N[C@@H](CC(=O)O)C(=O)N[C@@H](CCCNC(=N)N)C(=O)N[C@@H](C)C(=O)NCC(=O)NCC(=O)NCC(=O)NCC(=O)N[C@@H](CCCNC(=N)N)C(=O)NCC(=O)N[C@@H](CC(=O)O)C(=O)O [X40] (X69-RGADRAGGGGRGD-OH) | 34000 ± 7830 | 60.9 ± 10.7 | 0.49 | 42.23 ± 0.27 | – | – | – | –
C[C@H](NC(=O)CNC(=O)[C@H](CCCNC(=N)N)NC(=O)CCCCCc1ccc(N2C(=O)C=CC2=O)cc1)C(=O)N[C@@H](CC(=O)O)C(=O)N[C@@H](CCCNC(=N)N)C(=O)N[C@@H](C)C(=O)NCC(=O)NCC(=O)NCC(=O)NCC(=O)N[C@@H](CCCNC(=N)N)C(=O)NCC(=O)N[C@@H](CC(=O)O)C(=O)O [X41] (X37-RGADRAGGGGRGD-OH) | 26500 ± 7810 | 47.5 ± 13.9 | 0.628 | 32.9 ± 0.36 | – | – | – | –
C[C@H](NC(=O)CNC(=O)[C@H](CCCNC(=N)N)NC(=O)CCCCCCc1ccc(N2C(=O)C=CC2=O)cc1)C(=O)N[C@@H](CC(=O)O)C(=O)N[C@@H](CCCNC(=N)N)C(=O)N[C@@H](C)C(=O)NCC(=O)NCC(=O)NCC(=O)NCC(=O)N[C@@H](CCCNC(=N)N)C(=O)NCC(=O)N[C@@H](CC(=O)O)C(=O)O [X42] (X43-RGADRAGGGGRGD-OH) | 27100 ± 8010 | 48.5 ± 10.6 | 0.615 | 33.58 ± 0.24 | – | – | – | –
C[C@H](NC(=O)CNC(=O)[C@H](CCCNC(=N)N)NC(=O)CCCCCCCc1ccc(N2C(=O)C=CC2=O)cc1)C(=O)N[C@@H](CC(=O)O)C(=O)N[C@@H](CCCNC(=N)N)C(=O)N[C@@H](C)C(=O)NCC(=O)NCC(=O)NCC(=O)NCC(=O)N[C@@H](CCCNC(=N)N)C(=O)NCC(=O)N[C@@H](CC(=O)O)C(=O)O [X43] (X44-RGADRAGGGGRGD-OH) | 26700 ± 7420 | 47.8 ± 9.93 | 0.623 | 33.14 ± 0.31 | – | – | – | –
C[C@H](NC(=O)CNC(=O)[C@H](CCCNC(=N)N)NC(=O)CCCCCCCCc1ccc(N2C(=O)C=CC2=O)cc1)C(=O)N[C@@H](CC(=O)O)C(=O)N[C@@H](CCCNC(=N)N)C(=O)N[C@@H](C)C(=O)NCC(=O)NCC(=O)NCC(=O)NCC(=O)N[C@@H](CCCNC(=N)N)C(=O)NCC(=O)N[C@@H](CC(=O)O)C(=O)O [X44] (X40-RGADRAGGGGRGD-OH) | 26800 ± 8440 | 48 ± 11.6 | 0.622 | 33.26 ± 0.28 | – | – | – | –
C[C@H](NC(=O)CNC(=O)[C@H](CCCNC(=N)N)NC(=O)CCCCCCCCCc1ccc(N2C(=O)C=CC2=O)cc1)C(=O)N[C@@H](CC(=O)O)C(=O)N[C@@H](CCCNC(=N)N)C(=O)N[C@@H](C)C(=O)NCC(=O)NCC(=O)NCC(=O)NCC(=O)N[C@@H](CCCNC(=N)N)C(=O)NCC(=O)N[C@@H](CC(=O)O)C(=O)O [X45] (X73-RGADRAGGGGRGD-OH) | 24300 ± 8330 | 43.5 ± 12 | 0.685 | 30.15 ± 0.26 | – | – | – | –
C[C@H](NC(=O)CNC(=O)[C@H](CCCNC(=N)N)NC(=O)CCCCCCCCCCc1ccc(N2C(=O)C=CC2=O)cc1)C(=O)N[C@@H](CC(=O)O)C(=O)N[C@@H](CCCNC(=N)N)C(=O)N[C@@H](C)C(=O)NCC(=O)NCC(=O)NCC(=O)NCC(=O)N[C@@H](CCCNC(=N)N)C(=O)NCC(=O)N[C@@H](CC(=O)O)C(=O)O [X46] (X39-RGADRAGGGGRGD-OH) | 31600 ± 7470 | 56.6 ± 11 | 0.527 | 39.23 ± 0.29 | – | – | – | –
C[C@H](NC(=O)CNC(=O)[C@H](CCCNC(=N)N)NC(=O)CCCCCCCCCCCc1ccc(N2C(=O)C=CC2=O)cc1)C(=O)N[C@@H](CC(=O)O)C(=O)N[C@@H](CCCNC(=N)N)C(=O)N[C@@H](C)C(=O)NCC(=O)NCC(=O)NCC(=O)NCC(=O)N[C@@H](CCCNC(=N)N)C(=O)NCC(=O)N[C@@H](CC(=O)O)C(=O)O [X47] (X36-RGADRAGGGGRGD-OH) | 33200 ± 7130 | 59.4 ± 12 | 0.502 | 41.19 ± 0.27 | – | – | – | –
C[C@H](NC(=O)CNC(=O)[C@H](CCCNC(=N)N)NC(=O)CCCCCCCCCCCCc1ccc(N2C(=O)C=CC2=O)cc1)C(=O)N[C@@H](CC(=O)O)C(=O)N[C@@H](CCCNC(=N)N)C(=O)N[C@@H](C)C(=O)NCC(=O)NCC(=O)NCC(=O)NCC(=O)N[C@@H](CCCNC(=N)N)C(=O)NCC(=O)N[C@@H](CC(=O)O)C(=O)O [X48] (X41-RGADRAGGGGRGD-OH) | 29200 ± 7650 | 52.9 ± 12.1 | 0.565 | 36.64 ± 0.27 | – | – | – | –
C[C@H](NC(=O)CNC(=O)[C@H](CCCNC(=N)N)NC(=O)COCCN1C(=O)C=CC1=O)C(=O)N[C@@H](CC(=O)O)C(=O)N[C@@H](CCCNC(=N)N)C(=O)N[C@@H](C)C(=O)NCC(=O)NCC(=O)NCC(=O)NCC(=O)N[C@@H](CCCNC(=N)N)C(=O)NCC(=O)N[C@@H](CC(=O)O)C(=O)O [X49] (X38-RGADRAGGGGRGD-OH) | – | – | – | – | 28500 ± 7290 | 0.585 | 51 ± 11.1 | 35.31 ± 0.32
C[C@H](NC(=O)CNC(=O)[C@H](CCCNC(=N)N)NC(=O)CCOCCN1C(=O)C=CC1=O)C(=O)N[C@@H](CC(=O)O)C(=O)N[C@@H](CCCNC(=N)N)C(=O)N[C@@H](C)C(=O)NCC(=O)NCC(=O)NCC(=O)NCC(=O)N[C@@H](CCCNC(=N)N)C(=O)NCC(=O)N[C@@H](CC(=O)O)C(=O)O [X50] (X42-RGADRAGGGGRGD-OH) | – | – | – | – | 26900 ± 7090 | 0.62 | 48.1 ± 14.2 | 33.33 ± 0.25
C[C@H](NC(=O)CNC(=O)[C@H](CCCNC(=N)N)NC(=O)CCCOCCN1C(=O)C=CC1=O)C(=O)N[C@@H](CC(=O)O)C(=O)N[C@@H](CCCNC(=N)N)C(=O)N[C@@H](C)C(=O)NCC(=O)NCC(=O)NCC(=O)NCC(=O)N[C@@H](CCCNC(=N)N)C(=O)NCC(=O)N[C@@H](CC(=O)O)C(=O)O [X51] (X1-RGADRAGGGGRGD-OH) | 32500 ± 7310 | 58.1 ± 9.42 | 0.513 | 40.28 ± 0.24 | – | – | – | –
C[C@H](NC(=O)CNC(=O)[C@H](CCCNC(=N)N)NC(=O)CCCCOCCN1C(=O)C=CC1=O)C(=O)N[C@@H](CC(=O)O)C(=O)N[C@@H](CCCNC(=N)N)C(=O)N[C@@H](C)C(=O)NCC(=O)NCC(=O)NCC(=O)NCC(=O)N[C@@H](CCCNC(=N)N)C(=O)NCC(=O)N[C@@H](CC(=O)O)C(=O)O [X52] (X12-RGADRAGGGGRGD-OH) | 27900 ± 8180 | 50.1 ± 9.67 | 0.597 | 34.69 ± 0.34 | – | – | – | –
C[C@H](NC(=O)CNC(=O)[C@H](CCCNC(=N)N)NC(=O)CCCCCOCCN1C(=O)C=CC1=O)C(=O)N[C@@H](CC(=O)O)C(=O)N[C@@H](CCCNC(=N)N)C(=O)N[C@@H](C)C(=O)NCC(=O)NCC(=O)NCC(=O)NCC(=O)N[C@@H](CCCNC(=N)N)C(=O)NCC(=O)N[C@@H](CC(=O)O)C(=O)O [X53] (X13-RGADRAGGGGRGD-OH) | 31100 ± 7940 | 55.5 ± 12.4 | 0.537 | 38.47 ± 0.24 | – | – | – | –
